Laboratory results from BindingDB's records for doi:10.1007/bf00506193 (1984).

Biological target: T1, Alpha-1A adrenergic receptor (Rattus norvegicus, UniProt P43140)
T1 sequence (P43140 whole entry): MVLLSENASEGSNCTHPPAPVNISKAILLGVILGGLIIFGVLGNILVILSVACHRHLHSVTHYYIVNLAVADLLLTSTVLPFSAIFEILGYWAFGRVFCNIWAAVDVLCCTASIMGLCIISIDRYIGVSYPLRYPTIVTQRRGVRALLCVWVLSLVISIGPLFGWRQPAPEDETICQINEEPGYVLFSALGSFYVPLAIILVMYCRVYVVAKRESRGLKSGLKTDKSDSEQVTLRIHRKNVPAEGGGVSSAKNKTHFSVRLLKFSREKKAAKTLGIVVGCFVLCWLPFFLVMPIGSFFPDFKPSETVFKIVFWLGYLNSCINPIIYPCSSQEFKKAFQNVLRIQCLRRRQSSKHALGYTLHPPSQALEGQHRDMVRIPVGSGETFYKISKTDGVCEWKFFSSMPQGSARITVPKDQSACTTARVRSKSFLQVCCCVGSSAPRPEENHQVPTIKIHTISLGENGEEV

SMILES: c1ccc2c(c1)OCC(C1=NCCN1)O2 (stereo unspecified)
- Ki: 91 nM
